Earlier results on one compound are cited in patent US6491946B1, “Pharmaceutical levothyroxine preparation” (Merck Patent Gesellschaft, priority 1998, dated 2002).

Molecules are shown by their SMILES. Like-named read-outs stand apart in the source and are kept apart here.

For the compound `N[C@@H](Cc1cc(I)c(Oc2cc(I)c(O)c(I)c2)c(I)c1)C(=O)O` [Levothyroxine sodium, levothyroxine sodium], the Solubility entry (in ethanol) was “soluble with great difficulty” and the Solubility entry (in water) was “soluble with great difficulty”.
